Measured values from patent publication US20230002352A1, “SULFONAMIDE DERIVATIVES AS CTPS1 INHIBITORS” (Step Pharma S.A.S., priority 2019, published 2023).
Read-outs that look alike come from different tables or passages of the source.

Key:
human CTPS1 = target: T1, human CTPS1 (Homo sapiens, UniProt P17812); assay: Human CTPS1 enzyme inhibition (ADP-Glo Max assay); type: biochemical; settings: ADP-Glo Max assay, read-out: CTPS1 (Human CTPS1 Enzyme Inhibition data grouped by potency range, IC50)
T1 construct: purchased Proteros biostructures GmbH
T1 sequence (P17812 1-591): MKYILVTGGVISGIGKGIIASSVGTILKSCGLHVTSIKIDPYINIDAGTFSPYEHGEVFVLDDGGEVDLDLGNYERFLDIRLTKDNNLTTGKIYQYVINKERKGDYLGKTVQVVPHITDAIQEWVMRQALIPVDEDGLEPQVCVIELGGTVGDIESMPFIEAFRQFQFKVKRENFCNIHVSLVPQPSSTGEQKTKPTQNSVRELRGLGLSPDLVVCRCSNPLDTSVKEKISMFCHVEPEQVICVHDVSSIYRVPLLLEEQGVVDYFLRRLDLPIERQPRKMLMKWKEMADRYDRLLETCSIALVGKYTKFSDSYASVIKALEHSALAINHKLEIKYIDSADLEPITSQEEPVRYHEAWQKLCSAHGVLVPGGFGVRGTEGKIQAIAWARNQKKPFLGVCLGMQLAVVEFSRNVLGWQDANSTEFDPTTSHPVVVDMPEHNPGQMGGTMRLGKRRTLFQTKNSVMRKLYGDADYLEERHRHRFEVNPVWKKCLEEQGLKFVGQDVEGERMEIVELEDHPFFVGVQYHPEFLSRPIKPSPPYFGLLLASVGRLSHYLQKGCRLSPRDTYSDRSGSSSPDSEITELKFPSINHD
Procedure, shortened: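 Full-length FLAG-His-tagged human CTPS1 and compound were preincubated 10 min at 25 °C in 50 mM Tris pH 8.0, 10 mM MgCl2, 0.01% Tween-20, 2 mM L-cysteine. Substrate mix: ATP 0.31 mM, GTP 0.034 mM, UTP 0.48 mM, glutamine 0.186 mM; linear-phase reaction at 25 °C. ADP-Glo Max luminescence; IC50 from inhibition curve.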

human CTPS1 versus CTPS2 = assay: Human CTPS1 versus CTPS2 selectivity assessment by RapidFire/MS analysis; type: biochemical
Method: Biological Example 2—RapidFire/MS-Based Enzyme Selectivity Assays.
Human CTPS1 Versus CTPS2 Selectivity Assessment by RapidFire/MS Analysis.
The enzyme inhibitory activities against each target isoform of interest may be determined for the compounds of the invention using an optimised RapidFire high-throughput mass spectrometry (RF/MS) assay format. RF/MS assays for both human CTPS1 and CTPS2 may be performed in assay buffer consisting of 50 mM HEPES (Merck), 20 mM MgCl2, 5 mM KCl, 1 mM DTT, 0.01% Tween-20, pH to 8.0 accordingly. Human full-length active C-terminal FLAG-His-tag CTPS1 (UniProtKB-P17812, CTPS[1-591]-[…]) may be obtained from Proteros biostructures GmbH. Human full length active C-terminal FLAG-His-Avi tagged CTPS2 (UniProtKB-Q9NRF8, CTPS2 [1-586]-[…]) may be obtained from Harker Bio.
Human CTPS (1 or 2) protein may be prepared in 1× assay buffer to the final working protein concentration required for the reaction. A 2 uL volume per well of 2×CTPS (1 or 2) protein may be mixed with 40 nL of compound using acoustic (ECHO) delivery and incubated for 10 minutes at 25° C. Each isoform enzymatic reaction may be subsequently initiated by addition of 2 uL per well of a 2× substrate mix in assay buffer. For hCTPS1: ATP (0.3 mM), UTP (0.2 mM), GTP (0.07 mM) and L-glutamine (0.1 mM). For hCTPS2: ATP (0.1 mM), UTP (0.04 mM), GTP (0.03 mM) and L-glutamine (0.1 mM). Each mixture may be incubated for an appropriate amount of time per isoform within the determined linear phase of the reaction at 25° C. A 60 uL volume of stop solution (1% formic acid with 0.5 uM ^13C9-^15N3-CTP in H2O) may be added and the plate immediately heat-sealed and centrifuged for 10 minutes at 4,000 rpm. Following centrifugation, plates may be loaded onto the Agilent RapidFire microfluidic solid phase extraction system coupled to an AP14000 triple quadrupole mass spectrometer (RF/MS) for analysis.
In all cases, the enzyme converts UTP to CTP. Highly specific and sensitive multiple reaction monitoring (MRM) MS methods may be optimised for the detection of the enzymatic reaction product, CTP, and the stable isotope labelled product standard ^13C9-^15N3-CTP. Readout for data analysis may be calculated as the ratio between the peak area of the product CTP and the internal standard ^13C9-^15N3-CTP. For data reporting, the following equation may be used: […]
For each screening plate, the means of the negative (DMSO) and positive control values were used for the calculation of the respective assay window (S/B) and Z′ values. The median of the respective control values was used for calculation of percent inhibition according to the following equation: […]
Percentage inhibition was then plotted against compound concentration, and the 50% inhibitory concentration (IC50) was determined from the resultant concentration-response curve.
Fold selectivity between CTPS1 and CTPS2 was subsequently calculated according to the following equation: […]

| SMILES | Selectivity (fold selectivity between CTPS1 and CTPS2) (human CTPS1 versus CTPS2; Table 26) | further results |
| --- | --- | --- |
| CC(C)(NC(=O)c1ccc(-c2cncc(C(F)(F)F)n2)cc1)c1cncc(NS(=O)(=O)C2CC2)n1 [Example P222] | + (2-30 fold (+)) | IC50 (human CTPS1; Table 23): 100 to 1000 nM |
| CCOc1cncc(-c2ccc(NC(=O)C3(c4ccnc(NS(=O)(=O)C5CC5)n4)CCC(=O)CC3)nc2)n1 [Example P226, 1-(2-(Cyclopropanesulfonamido)pyrimidin-4-yl)-N-(5-(6-ethoxypyrazin-2-yl)pyridin-2-yl)-4-oxocyclohexanecarboxamide] |  | IC50 (human CTPS1; Table 24): ≤ 100 nM; Selectivity (fold selectivity between CTPS1 and CTPS2) (human CTPS1 versus CTPS2; Table 27): +++ (>60 fold (+++)) |
| CCOc1cncc(-c2ccc(NC(=O)C(CCOC)c3ccnc(NS(=O)(=O)C4CC4)n3)nc2)n1 (stereo not drawn) [Example P145] | +++ (>60 fold (+++)) | IC50 (human CTPS1; Table 23): ≤ 100 nM |
| CCOc1cncc(-c2ccc(NC(=O)C3(c4ccnc(NS(=O)(=O)C5CC5)n4)CCC(N(C)C)CC3)nc2)n1 (single isomer, unassigned) [Example P230, 1-(2-(cyclopropanesulfonamido)pyrimidin-4-yl)-4-(dimethylamino)-N-(5-(6-ethoxypyrazin-2-yl)pyridin-2-yl)cyclohexane-1-carboxamide] |  | IC50 (human CTPS1; Table 24): ≤ 100 nM; Selectivity (fold selectivity between CTPS1 and CTPS2) (human CTPS1 versus CTPS2; Table 27): +++ (>60 fold (+++)) |
| CCOc1cncc(-c2ccc(NC(=O)C3(c4ccnc(NS(=O)(=O)C5CC5)n4)CCC(N(C)C)CC3)nc2)n1 (single isomer, unassigned) [Example P229, 1-(2-(cyclopropanesulfonamido)pyrimidin-4-yl)-4-(dimethylamino)-N-(5-(6-ethoxypyrazin-2-yl)pyridin-2-yl)cyclohexane-1-carboxamide] |  | IC50 (human CTPS1; Table 24): ≤ 100 nM; Selectivity (fold selectivity between CTPS1 and CTPS2) (human CTPS1 versus CTPS2; Table 27): +++ (>60 fold (+++)) |
| CCC(C(=O)Nc1ncc(-c2cncc(OC)n2)cc1F)c1ccnc(NS(=O)(=O)C2CC2)n1 (stereo not drawn) [Example P158] | + (2-30 fold (+)) | IC50 (human CTPS1; Table 23): 100 to 1000 nM |
| CCOc1cncc(-c2ccc(NC(=O)C3(c4ccnc(NS(=O)(=O)C5CC5)n4)CCN(S(C)(=O)=O)CC3)nc2)n1 [Example P251] |  | IC50 (human CTPS1; Table 24): ≤ 100 nM; Selectivity (fold selectivity between CTPS1 and CTPS2) (human CTPS1 versus CTPS2; Table 27): +++ (>60 fold (+++)) |
| CCOc1cncc(-c2ccc(NC(=O)C(C)(C)c3ccnc(NS(C)(=O)=O)n3)nc2)n1 [Example P76] | ++ (>30-60 fold (++)) | IC50 (human CTPS1; Table 23): 100 to 1000 nM |
| CC(C)(C(=O)Nc1ccc(-c2cccnc2)cc1)c1ccnc(NS(=O)(=O)C2CC2)n1 [Example P59] | + (2-30 fold (+)) | IC50 (human CTPS1; Table 23): 1000 to 10000 nM |
| CCOc1cncc(-c2ccc(C(=O)NC(CC)c3ccnc(NS(=O)(=O)C4CC4)n3)c(F)c2)n1 (stereo not drawn) [Example P216] | +++ (>60 fold (+++)) |  |
| CCOc1cncc(-c2ccc(NC(=O)C(CCOC)c3ccnc(NS(=O)(=O)C4CC4)n3)cc2)n1 (stereo not drawn) [Example P110] | ++ (>30-60 fold (++)) |  |
| CCC(C(=O)Nc1ccc(-c2cncc(C(F)(F)F)n2)cc1)c1ccnc(NS(=O)(=O)C2CC2)n1 (stereo not drawn) [Example P103] | + (2-30 fold (+)) |  |
| CCOc1cncc(-c2ccc(NC(=O)C(F)(CC)c3cncc(NS(=O)(=O)C4CC4)n3)nc2)n1 (single isomer, unassigned) [Example P206] | +++ (>60 fold (+++)) |  |
| CCC(C(=O)Nc1ccc(-c2cncc(C(F)(F)F)n2)cn1)c1ccnc(NS(=O)(=O)C2CC2)n1 (stereo not drawn) [Example P87] | ++ (>30-60 fold (++)) |  |
| CCOc1cncc(-c2ccc(NC(=O)C(F)(CC)c3ccnc(NS(=O)(=O)C4CC4)n3)nc2)n1 (racemic) [Example P112, 2-(2-(Cyclopropanesulfonamido)pyrimidin-4-yl)-N-(5-(6-ethoxypyrazin-2-yl)pyridin-2-yl)-2-fluorobutanamide] | ++ (>30-60 fold (++)) |  |
| CCOc1cncc(-c2ccc(NC(=O)C(CC)c3ccnc(NS(=O)(=O)C4CC4)n3)nc2)n1 (stereo not drawn) [Example P88] | +++ (>60 fold (+++)) |  |
| CCC(C(=O)Nc1ccc(-c2cncc(Cl)c2)cc1)c1ccnc(NS(=O)(=O)C2CC2)n1 (stereo not drawn) [Example P1, N-(4-(5-Chloropyridin-3-yl)phenyl)-2-(2-(cyclopropanesulfonamido)pyrimidin-4-yl)butanamide] | + (2-30 fold (+)) |  |
| CCOc1cncc(-c2ccc(NC(=O)C(C)(CCOC)c3cncc(NS(=O)(=O)C4CC4)n3)nc2)n1 (stereo not drawn) [Example P198] | +++ (>60 fold (+++)) |  |
| CCOc1cncc(-c2ccc(NC(=O)C(C)(OC)c3cncc(NS(=O)(=O)C4CC4)n3)nc2)n1 (stereo not drawn) [Example P205b] | ++ (>30-60 fold (++)) |  |
| CCOc1cncc(-c2ccc(NC(=O)C(CC)c3ccnc(NS(=O)(=O)C4CC4)n3)cc2)n1 (stereo not drawn) [Example P105, 2-(2-(Cyclopropanesulfonamido)pyrimidin-4-yl)-N-(4-(6-ethoxypyrazin-2-yl)phenyl)butanamide] | ++ (>30-60 fold (++)) |  |
| CCOc1cncc(-c2ccc(NC(=O)C(CC)c3cncc(NS(=O)(=O)C4CC4)n3)cc2)n1 (stereo not drawn) [Example P202] | +++ (>60 fold (+++)) |  |
| CC(C)Oc1cncc(-c2ccc(NC(=O)C(C)(C)c3ccnc(NS(=O)(=O)C4CC4)n3)nc2)n1 [Example P9] | +++ (>60 fold (+++)) |  |
| CCC(C(=O)Nc1ccc(-c2cncc(OC(C)C)n2)cn1)c1ccnc(NS(=O)(=O)C2CC2)n1 (stereo not drawn) [Example P89] | +++ (>60 fold (+++)) |  |
| CCOc1cncc(-c2ccc(NC(=O)C(F)(CC)c3ccnc(NS(=O)(=O)C4CC4)n3)nc2)n1 (single isomer, unassigned) [Example P113, 2-(2-(cyclopropanesulfonamido)pyrimidin-4-yl)-N-(5-(6-ethoxypyrazin-2-yl)pyridin-2-yl)-2-fluorobutanamide] | + (2-30 fold (+)) |  |
| CCC(C(=O)Nc1ccc(-c2cncc(OCC(F)(F)F)n2)cc1)c1ccnc(NS(=O)(=O)C2CC2)n1 (stereo not drawn) [Example P108] | +++ (>60 fold (+++)) |  |
| CCOc1cncc(-c2ccc(NC(=O)C(CC)c3cncc(NS(=O)(=O)C4CC4)n3)nc2)n1 (stereo not drawn) [Example P201] | +++ (>60 fold (+++)) |  |
| CCOc1cncc(-c2ccc(NC(=O)C(F)(CC)c3ccnc(NS(=O)(=O)C4CC4)n3)nc2)n1 (single isomer, unassigned) [Example P114, 2-(2-(cyclopropanesulfonamido)pyrimidin-4-yl)-N-(5-(6-ethoxypyrazin-2-yl)pyridin-2-yl)-2-fluorobutanamide] | +++ (>60 fold (+++)) |  |
